Reference: EP4635500A1, “THERAPEUTIC AGENT FOR BACTERIAL INFECTION” (Sumitomo Pharma Co., Ltd., priority 2022, dated 2024)
Like-named read-outs stand apart in the source and are kept apart here.

What was measured:
Type in all cases: cell-based
[1] = system: Serratia marcescens; experiment: MIC and MBC, broth microdilution (Example 4, Table 3); conditions: Serratia marcescens CDC-124 (SME-3)
[2] = system: Bacteroides spp.; experiment: MIC, agar dilution, anaerobic bacteria (Example 9, Tables 17, 22); conditions: for MIC: (n)=Compound A µg/mL, 0=Compound A alone antibacterial
[3] = system: Porphyromonas spp.; experiment: MIC, agar dilution, anaerobic bacteria (Example 9, Tables 19, 24); conditions: for MIC: (n)=Compound A µg/mL, 0=Compound A alone antibacterial
[4] = system: Enterobacter cloacae; experiment: MIC, broth microdilution, standard strains and Japanese clinical isolates (Example 5, Table 4)
[5] = system: Morganella morganii; experiment: MIC and MBC, broth microdilution (Example 4, Table 3); conditions: Morganella morganii CDC-57 (NDM-1)
[6] = system: Enterobacter aerogenes; experiment: as above; conditions: Klebsiella aerogenes
[7] = system: Klebsiella pneumoniae; experiment: MIC, broth microdilution, standard strains and Japanese clinical isolates (Example 5, Table 4)
[8] = system: Escherichia coli; experiment: as above
[9] = system: Gram-positive bacteria; experiment: MIC, agar dilution, anaerobic bacteria (Example 9, Tables 21, 26)
[10] = system: Acinetobacter baumannii; experiment: MIC and MBC, broth microdilution (Example 4, Table 3); conditions: for MBC: Acinetobacter baumannii
[11] = system: Enterobacter hormaechei; experiment: MIC, broth microdilution, standard strains and Japanese clinical isolates (Example 5, Table 4); conditions: ATCCBAA2082; KUB4001 Enterobacter hormaechei ATCC BAA-2082, KPC-2
[12] = table at the place of Table 24, Prevotella spp.
[13] = Acinetobacter baumannii CDC-303 (OXA-23, OXA-66)

C[C@@H](O)[C@H]1C(=O)N2C(C(=O)O)=C(S[C@@H]3CN[C@H](C(=O)N(C)C)C3)[C@H](C)[C@H]12 [MEPM, meropenem]
256 µg/mL: MIC ([7]; KUB3606 Klebsiella pneumoniae Clinical isolate, KPC-38)
> 512 µg/mL: MIC ([2]; KUB No. 6509 Bacteroides fragilis)
8 µg/mL: MIC ([2]; KUB No. 6485 Bacteroides vulgatus) | MBC [5] | MIC [5] | MBC [6] | MIC ([7]; ATCCBAA1899, KUB3997 Klebsiella pneumoniae ATCC BAA-1899, KPC-2) | MIC ([7]; ATCCBAA1900, KUB3998 Klebsiella pneumoniae ATCC BAA-1900, KPC-3) | MIC ([7]; ATCCBAA1905, KUB3155 Klebsiella pneumoniae ATCC BAA-1905, KPC-2) | MIC ([7]; KUB3628 Klebsiella pneumoniae Clinical isolate, IMP-1)
0.12 µg/mL: MIC ([2]; Bacteroides, KUB No. 2982 Bacteroidesfragilis) | MIC ([2]; Bacteroides, KUB No. 6464 Bacteroides vulgarus) | MIC ([2]; KUB No. 3003 Bacteroides fragilis ATCC 25285) | MIC ([2]; KUB No. 6463 Bacteroides fragilis) | MIC ([2]; KUB No. 6467 Bacteroides fragilis) | MIC ([2]; KUB No. 6471 Bacteroides fragilis) | MIC ([2]; KUB No. 6478 Bacteroides fragilis) | MIC ([2]; KUB No. 6481 Bacteroides fragilis) | MIC ([2]; KUB No. 6483 Bacteroides fragilis) | MIC ([2]; KUB No. 6486 Bacteroides fragilis) | MIC ([2]; KUB No. 6496 Bacteroides fragilis) | MIC ([2]; KUB No. 6497 Bacteroides vulgatus) | MIC ([2]; KUB No. 6535 Bacteroides fragilis) | MIC ([9]; KUB No. 3013 Bulleidia extructa, read-out: MIC) | MIC ([9]; Schaalia odontolytica, ATCC17929, KUB No. 3488 Actinomyces odontolyticus ATCC 17929, read-out: MIC)
≤0.03 to 4 µg/mL: MICrange ([9]; Gram-positive bacteria)
16 µg/mL: MIC ([2]; KUB No. 6491 Bacteroides fragilis) | MIC ([2]; KUB No. 6502 Bacteroides fragilis) | MIC ([4]; ATCCBAA2341, KUB4002 Enterobacter cloacae ATCC BAA-2341, KPC-3) | MIC ([4]; KUB3609 Enterobacter cloacae Clinical isolate, IMP-1) | MIC ([7]; ATCCBAA2343, KUB4004 Klebsiella pneumoniae ATCC BAA-2343, KPC-3) | MIC ([7]; ATCCBAA2470, KUB3157 Klebsiella pneumoniae subsp. pneumoniae ATCC BAA-2470, NDM-1) | MIC [11]
0.5 µg/mL: MIC50 ([2]; Bacteroides spp.) | MIC50 ([2]; Bacteroides, n=56, combination: Compound A at 4 ug/mL, read-out: MIC50) | MIC ([2]; KUB No. 6458 Bacteroides fragilis) | MIC ([2]; KUB No. 6461 Bacteroides fragilis) | MIC ([2]; KUB No. 6465 Bacteroides thetaiotaomicron) | MIC ([2]; KUB No. 6476 Bacteroides vulgatus) | MIC ([2]; KUB No. 6503 Bacteroides thetaiotaomicron) | MIC ([7]; KUB3163 Klebsiella pneumoniae Clinical isolate, IMP-1) | MIC ([7]; KUB3166 Klebsiella pneumoniae Clinical isolate, IMP-1) | MIC ([7]; KUB3607 Klebsiella pneumoniae Clinical isolate, IMP-1) | MIC ([7]; NCTC13439, KUB3159 Klebsiella pneumoniae NCTC13439, VIM-1) | MIC ([7]; NCTC13440, KUB3160 Klebsiella pneumoniae NCTC13440, VIM-1) | MIC ([8]; ATCCBAA2340, KUB3148 Escherichia coli ATCC BAA-2340, KPC-3) | MIC ([9]; Eggerthella lenta, ATCC43055)
≤0.03 µg/mL: MIC50 [3, 12] | MIC90 [3, 12] | MICrange [3, 12]
4 µg/mL: MIC90 ([2]; Bacteroides spp.) | MIC90 ([2]; Bacteroides, n=56, combination: Compound A at 4 ug/mL, read-out: MIC90) | MIC ([2]; KUB No. 2983 Bacteroides fragilis) | MIC ([2]; KUB No. 6466 Bacteroides fragilis) | MIC ([2]; KUB No. 6468 Bacteroides fragilis) | MIC ([2]; KUB No. 6477 Bacteroides fragilis) | MIC ([2]; KUB No. 6506 Bacteroides thetaiotaomicron) | MIC ([2]; KUB No. 6523 Bacteroides fragilis) | MIC ([2]; KUB No. 6525 Bacteroides fragilis) | MIC ([2]; KUB No. 6527 Bacteroides thetaiotaomicron) | MIC ([4]; KUB3610 Enterobacter cloacae Clinical isolate, IMP-1) | MIC [6] | MIC ([7]; ATCCBAA1705, KUB3152 Klebsiella pneumoniae ATCC BAA-1705, KPC-2) | MIC ([7]; ATCCBAA1903, KUB3154 Klebsiella pneumoniae ATCC BAA-1903, KPC-2) | MIC ([7]; ATCCBAA2078, KUB4000 Klebsiella pneumoniae ATCC BAA-2078, KPC-3) | MIC ([7]; ATCCBAA2342, KUB4003 Klebsiella pneumoniae ATCC BAA-2342, KPC-3) | MIC ([7]; ATCCBAA2344, KUB3156 Klebsiella pneumoniae ATCC BAA-2344, KPC-2) | MIC ([7]; KUB3631 Klebsiella pneumoniae Clinical isolate, IMP-1) | MIC ([9]; ATCCBAA1803, KUB No. 3511 Clostridioides difficile ATCC BAA-1803, read-out: MIC) | MIC ([9]; ATCCBAA1870, KUB No. 3385 Clostridioides difficile ATCC BAA-1870, read-out: MIC)
1 µg/mL: MIC ([2]; Bacteroides, KUB No. 6480 Bacteroides thetaioraomicron) | MIC ([2]; KUB No. 3009 Bacteroides ovatus) | MIC ([2]; KUB No. 6472 Bacteroides stercoris) | MIC ([2]; KUB No. 6474 Bacteroides fragilis) | MIC ([2]; KUB No. 6511 Bacteroides salyersiae) | MIC ([2]; KUB No. 6544 Bacteroides vulgatus) | MIC ([2]; KUB No. 6556 Bacteroides vulgatus) | MIC ([7]; KUB3630 Klebsiella pneumoniae Clinical isolate, IMP-1) | MIC ([7]; KUB3633 Klebsiella pneumoniae Clinical isolate, IMP-6) | MIC ([7]; KUB3634 Klebsiella pneumoniae Clinical isolate, IMP-6) | MIC ([8]; ATCCBAA2452, KUB4005 Escherichia coli ATCC BAA-2452, NDM-1) | MIC ([8]; KUB3151 Escherichia coli NCTC13476, IMP-1)
2 µg/mL: MIC ([2]; Bacteroides, KUB No. 6487 Bacteroides thetaiotamicron) | MIC ([2]; KUB No. 6460 Bacteroides thetaiotaomicron) | MIC ([2]; KUB No. 6475 Bacteroides thetaiotaomicron) | MIC ([2]; KUB No. 6515 Bacteroides thetaiotaomicron) | MIC ([2]; KUB No. 6530 Bacteroides thetaiotaomicron) | MIC ([2]; KUB No. 6545 Bacteroides thetaiotaomicron) | MIC ([7]; ATCCBAA1904, KUB3999 Klebsiella pneumoniae ATCC BAA-1904, KPC-3) | MIC ([7]; KUB3164 Klebsiella pneumoniae Clinical isolate, IMP-6) | MIC ([8]; ATCCBAA2469, KUB3149 Escherichia coli ATCC BAA-2469, NDM-1) | MIC90 [9] | MIC ([9]; ATCC43255, KUB No. 3518 Clostridioides difficile ATCC 43255, read-out: MIC) | MIC ([9]; ATCC700057, KUB No. 2978 Clostridioides difficile ATCC 700057, read-out: MIC) | MIC90 ([9]; Gram-positive bacteria, read-out: MIC90) | MIC ([9]; Peptostreptococcus anaerobius)
0.25 µg/mL: MIC ([2]; KUB No. 2977 Bacteroides thetaiotaomicron ATCC 29741) | MIC ([2]; KUB No. 2984 Bacteroides thetaiotaomicron) | MIC ([2]; KUB No. 6459 Bacteroides stercoris) | MIC ([2]; KUB No. 6469 Bacteroides fragilis) | MIC ([2]; KUB No. 6470 Bacteroides fragilis) | MIC ([2]; KUB No. 6473 Bacteroides fragilis) | MIC ([2]; KUB No. 6484 Bacteroides fragilis) | MIC ([2]; KUB No. 6493 Bacteroides thetaiotaomicron) | MIC ([2]; KUB No. 6504 Bacteroides caccae) | MIC ([2]; KUB No. 6513 Bacteroides fragilis) | MIC ([2]; KUB No. 6522 Bacteroides fragilis) | MIC ([4]; KUB3165 Enterobacter cloacae Clinical isolate, IMP-34) | MIC ([4]; KUB3167 Enterobacter cloacae Clinical isolate, IMP-1) | MIC ([7]; ATCCBAA2524, KUB3158 Klebsiella pneumoniae subsp. pneumoniae ATCC BAA-2524, OXA-48)
0.06 µg/mL: MIC ([2]; KUB No. 6518 Bacteroides fragilis) | MIC ([4]; KUB3168 Enterobacter cloacae Clinical isolate, carbapenemase genes -) | MIC ([8]; ATCCBAA2523, KUB3150 Escherichia coli ATCC BAA-2523, OXA-48) | MIC50 [9] | MIC ([9]; Finegoldia magna, ATCC29328) | MIC50 ([9]; Gram-positive bacteria, read-out: MIC50) | MIC ([9]; KUB No. 3014 Atropobium rimae, read-out: MIC)
32 µg/mL: MIC ([7]; ATCCBAA1898, KUB3996 Klebsiella pneumoniae ATCC BAA-1898, KPC-2) | MIC ([7]; KUB3635 Klebsiella pneumoniae Clinical isolate, IMP-1) | MIC ([8]; ATCCBAA2471, KUB4007 Escherichia coli ATCC BAA-2471, NDM-6) | MIC ([8]; KUB3605 Escherichia coli Clinical isolate, NDM-1)
64 µg/mL: MIC [1] | MIC ([2]; KUB No. 6490 Bacteroides fragilis) | MIC ([7]; ATCCBAA1902, KUB3153 Klebsiella pneumoniae ATCC BAA-1902, KPC-3) | MIC ([7]; ATCCBAA2146, KUB4011 Klebsiella pneumoniae ATCC BAA-2146, NDM-1) | MIC ([7]; ATCCBAA2473, KUB4009 Klebsiella pneumoniae ATCC BAA-2473, NDM-1) | MIC [10, 13] | MIC ([10]; Acinetobacter baumannii CDC-304 (OXA-66, OXA-72), read-out: MIC) | MBC [10, 13] | MBC ([10]; Acinetobacter baumannii CDC-304 (OXA-66, OXA-72))
≤ 0.03 µg/mL: MIC ([3]; KUB No. 6663 Porphyromonas gingivalis) | MIC ([3]; KUB No. 6666 Porphyromonas gingivalis) | MIC ([3]; KUB No. 6667 Porphyromonas gingivalis) | MIC ([3]; KUB No. 6668 Porphyromonas gingivalis) | MIC ([3]; KUB No. 6669 Porphyromonas gingivalis) | MIC ([3]; KUB No. 6670 Porphyromonas gingivalis) | MIC ([3]; KUB No. 6671 Porphyromonas gingivalis) | MIC ([3]; KUB No. 6672 Porphyromonas gingivalis) | MIC ([3]; KUB No. 6673 Porphyromonas gingivalis) | MIC ([3]; KUB No. 6674 Porphyromonas gingivalis) | MIC ([3]; KUB No. 6676 Porphyromonas gingivalis) | MIC ([3]; KUB No. 6677 Porphyromonas gingivalis) | MIC ([3]; KUB No. 6678 Porphyromonas gingivalis) | MIC ([3]; KUB No. 6679 Porphyromonas gingivalis) | MIC ([3]; KUB No. 6680 Porphyromonas gingivalis) | MIC ([3]; KUB No. 6681 Porphyromonas gingivalis) | MIC ([3]; KUB No. 6682 Porphyromonas gingivalis) | MIC ([3]; KUB No. 6683 Porphyromonas gingivalis) | MIC ([3]; KUB No. 6684 Porphyromonas gingivalis) | MIC ([3]; KUB No. 6685 Porphyromonas gingivalis) | MIC ([3]; KUB No. 6686 Porphyromonas gingivalis) | MIC ([3]; KUB No. 6687 Porphyromonas gingivalis) | MIC ([3]; Porphyromonas, KUB No. 6665 Porphyromonas assaccharolytica) | MIC50 ([3]; Porphyromonas, n=26, combination: Compound A at 4 ug/mL, read-out: MIC50) | MIC90 ([3]; Porphyromonas, n=26, combination: Compound A at 4 ug/mL, read-out: MIC90) | MIC ([9]; Cutibacterium acnes, ATCC11827) | MIC ([9]; Olsenella uli) | MIC ([9]; Peptoniphilus asaccharolyticus, ATCC14963) | MIC ([9]; Peptoniphilus indolicus)
0.03 µg/mL: MIC ([3]; KUB No. 6688 Porphyromonas gingivalis)
